Experimental findings from patent US6528251B2, “Method of managing the chemotherapy of patients who are HIV positive based on the phenotypic drug sensitivity of human HIV strains” (Virco N.V., priority 1996, dated 2003) are described below.

What all share (assay type): cell-based, HIV-1
Test [1] relates to recombinant virus from patient viral RNA (Example 12). The test can be described thus: Recombinant virus assay (MT4/MTT), patient of Example 12 (therapy history RT and protease inhibitors). The following applies: for susceptibility of the patient's HIV strain (in words): Example 12 patient, conclusion from Table 8; for IC50: Human immunodeficiency virus 1, Table 8, Example 12 patient virus; for ratio (1)/(2): Table 8, patient mean IC50 / recIIIB IC50, Example 12. As to the method:
(§1) RNA was isolated from 100 μl of plasma according to the method described by Boom, R. et al. (1990, supra), and was reverse transcribed with the GeneAmp reverse transcriptase kit (Perkin Elmer) as described by the manufacturer and using an HIV-1 specific downstream primer (OUT3: 5′-CATTGCTCTCCAATTACTGTGATATTTCTCATC-3′; SEQ ID NO: 1). PCR on reverse transcribed RNA was performed with inner and outer primers as described by Kellam, P. and Larder, B. A. (1994, supra). After chloroform extraction and centrifugation on Centricon 100 columns or centrifugation on anion-exchange spin columns (Quiagen), the isolated PCR product was ready for use in the transfection reactions.
(§2) MT4 cells were subcultured at a density of 250,000 cells/ml before transfection (exponential growth phase). Cells were pelleted and resuspended in phosphate buffered saline (PBS) at a concentration of […]. A 0.8 ml portion (2.5 10E6 cells/ml) was used for each transfection. Transfection was performed with the Bio-Rad Gene pulser making use of 0.4 cm electrode cuvettes. Cells were electroporated in the presence of […] of linearised pHIVΔRT plasmid and approximately 5 μg of RT PCR product at 250SF and 300 V, followed by a 30-min incubation at room temperature. Subsequently, 10 ml of fresh culture medium was added to the cell suspension and incubation was performed at 37° C. in a humidified atmosphere of 5% CO2.
(§3) During 7 to 10 days following the transfection, cells were monitored for the appearance of cytopathogenic effect (CPE). In the absence thereof, cells were subcultured in different flasks. Subsequently, culture supernatants of transfected cells were used to create a stock of recombinant virus and stored in 1.5 ml aliquots at −70° C.
(§4) After titration of the new viruses, the stocks were used for antiviral experiments in the presence of serial dilutions of different HIV inhibitors. Titres of the harvested supematants were determined by limited serial dilution titration of virus in MT4 cells.
(§5) Viruses with a useful titre were used in antiviral experiments. For this purpose, 96-well microtitre plates were filled with 100μl of complete culture medium. Subsequently, stock solutions of compounds were added in 25 μl volumes to series of duplicate wells. HIV- and mock-infected cell samples were included for each drug (or drug combination). Exponentially growing MT4 cells were then transferred to the microtitre plates at a density of 150,000 cells/ml. The cell cultures were then incubated at 37° C. in a humidified atmosphere of 5% CO2. Five days after infection, the viability of the mock- and HIV-infected cells was examined spectrophotometrically by the M1T method (Pauwels, R. et al. J. Virol. Meth. (1988), 20: 309-321) as described in Section 6 below.
(§6) To each well of the microtiter plates, 20 μl of a solution of MTT (7.5 mg/ml in PBS) was added. The plates were further incubated at 37° C. for 1 h. Then, 150 μl of medium was removed without disturbing the MT4 cell clusters containing the formazan crystals. Solubilization of the formazan crystals was achieved by adding 100 μl 5% Triton X-100 in acidified isopropanol (5 ml concentrated HCl per liter solvent). Complete dissolution of the formazan crystals was obtained after the plates had been placed on a plate shaker for 10 min. Finally the absorbances were read at two wavelengths (540 and 690 nm). From these optical density (OD) data, 50% inhibitory (IC50) and 50% cytotoxic (CC50) concentrations were derived.
An HIV infected patient with a therapy history including RT and protease inhibitors donated plasma whose susceptibility to a number of RT inhibitors and protease inhibitors was determined according to the protocol set out in Example 1.

The test system of test [2] is recombinant virus from patient viral RNA (Example 11). The test can be described thus: Recombinant virus assay (MT4/MTT), patient of Example 11 (therapy history RT and protease inhibitors). The following applies: for IC50: Human immunodeficiency virus 1, Table 7, Example 11 patient virus; for ratio (1)/(2): Table 7, patient mean IC50 / recIIIB IC50, Example 11; for susceptibility of the patient's HIV strain (in words): Example 11 patient, conclusion from Table 7. As to the method:
as §1, §2, §3, §4, §5, §6
An HIV infected patient with a therapy history including RT and protease inhibitors donated plasma whose susceptibility to a number of RT inhibitors and protease inhibitors was determined according to the protocol set out in Example 1. Recombinant wild type HIV strain recIIIb was used as a reference HIV virus.

The test system of test [3] is recombinant virus from patient viral RNA (Example 10, drug-naive patient). Briefly: Recombinant virus assay (MT4/MTT), drug-naive patient of Example 10. The following applies: for IC50: Human immunodeficiency virus 1, Table 6, Example 10 patient virus; for ratio (1)/(2): Table 6, patient mean IC50 / recIIIB IC50, Example 10. The protocol:
as §1, §2, §3, §4, §5, §6
A drug-naive HIV-infected patient donated plasma whose susceptibility to a number of RT inhibitors and protease inhibitors was determined according to the protocol set out in Example 1. Recombinant wild type HIV strain recIIIB was used as a reference HIV virus.

Test [4] concerns Recombinant wild type HIV strain recIIIB. Briefly: Antiviral MT4/MTT assay with reference virus recIIIB. The following applies: read-out: Anti-HIV-1 activity IC50 (μM) recIIIB ref (2). As to the method: as §4, §5, §6
Setting [5] is: MT4 cells, read-out: Anti-HIV-1 activity IC50 (μM) Exp. 1.
Setting [6] is: MT4 cells, read-out: Anti-HIV-1 activity IC50 (μM) Exp. 2.
Setting [7] is: mean, read-out: Anti-HIV-1 activity IC50 (μM) Mean (1).
Where [8] appears, read: Human immunodeficiency virus 1, Table 6, reference run of Example 10.
The mark [9] stands for this setting: Human immunodeficiency virus 1, Table 7, reference run of Example 11.
[10] abbreviates: Human immunodeficiency virus 1, Table 8, reference run of Example 12.

As a reminder, the IC50 is the concentration at which inhibition is half-maximal.

Where two headings read alike, the source gives them in different places.

As for `CC(C)(C)NC(=O)[C@@H]1C[C@@H]2CCCC[C@@H]2CN1C[C@@H](O)[C@H](Cc1ccccc1)NC(=O)[C@H](CC(N)=O)NC(=O)c1ccc2ccccc2n1` [saquinavir], the “susceptibility of the patient's HIV strain (in words)” value (shortened to “susceptibility”) in test [1] is recorded as “decreased susceptibility”. Also, the IC50 in test [1] (setting [5]) was found to be 0.35 µM; in test [1] (setting [6]), 0.352 µM; in test [1] (setting [7]) it was 0.351 µM; in test [2] (setting [5]), 0.014 µM; in test [2] (setting [6]), 0.015 µM; in test [2] (setting [7]), 0.014 µM. Also, the IC50 in test [3] (setting [5]) is 0.003 µM; in test [3] (setting [6]), 0.003 µM; in test [3] (setting [7]) it was 0.003 µM; in test [4] (setting [8]), 0.006 µM; in test [4] (setting [9]) it was 0.012 µM; in test [4] (setting [10]) it was 0.006 µM. Further, the figures for the “ratio (1)/(2)” value in test [1], in test [2] and in test [3] were 56, 1 and 0.4, respectively.

For the compound `CC(C)c1nc(CN(C)C(=O)N[C@H](C(=O)N[C@@H](Cc2ccccc2)C[C@H](O)[C@H](Cc2ccccc2)NC(=O)OCc2cncs2)C(C)C)cs1` [ritonavir], the entries for the “susceptibility” value in test [1] and in test [2] were “decreased susceptibility” and “decreased susceptibilty”, respectively. For the same compound, the IC50 in test [1] (setting [5]) worked out at 1.61 µM; in test [1] (setting [6]), 1.53 µM; in test [1] (setting [7]) it was 1.57 µM; in test [2] (setting [5]), 1.2 µM; in test [2] (setting [6]) it was 1.74 µM; in test [2] (setting [7]) it was 1.47 µM. Moreover, the IC50 came out at 0.022 µM in test [3] (setting [5]); 0.017 µM in test [3] (setting [6]); 0.019 µM in test [3] (setting [7]); 0.033 µM in test [4] (setting [8]); 0.062 µM in test [4] (setting [9]); 0.033 µM in test [4] (setting [10]). The “ratio (1)/(2)” value was determined as 47 in test [1], 24 in test [2] and 0.6 in test [3].

On to `CC(C)(C)NC(=O)[C@@H]1CN(Cc2cccnc2)CCN1C[C@@H](O)C[C@@H](Cc1ccccc1)C(=O)N[C@H]1c2ccccc2C[C@H]1O` [indinavir], for which the “susceptibility” value is listed as “decreased susceptibility” in test [1] and “decreased susceptibilty” in test [2]. Also, the IC50 in test [1] (setting [5]) came out at 0.124 µM; in test [1] (setting [7]), 0.124 µM; in test [2] (setting [5]), 0.229 µM; in test [2] (setting [6]), 0.416 µM; in test [2] (setting [7]) it was 0.323 µM; in test [3] (setting [5]), 0.013 µM. In addition, the half-maximal inhibitory concentration (IC50) in test [3] (setting [6]) amounted to 0.013 µM; in test [3] (setting [7]), 0.013 µM; in test [4] (setting [8]), 0.016 µM; in test [4] (setting [9]), 0.027 µM; in test [4] (setting [10]), 0.016 µM. Moreover, the entries for the “ratio (1)/(2)” value in test [1], in test [2] and in test [3] were 8, 12 and 0.8, respectively.
